Results reported in US7279565B2, “Molecular regulatory circuits to achieve sustained activation of genes of interest by a single stress” (priority 1998, dated 2007).

Tests used:
Format in all cases: cell-based
[1] = target: T1, transcription factor GLP65 (Homo sapiens, UniProt P06401); assay: Molecular circuit Hsp70/GAL4-GLP65 + GAL4-hGH in co-transfected HeLa cells, hGH ELISA; details: 10 nM mifepristone with or without heat treatment 43-44° C. for 30-60 min, assayed two or three days later, FIG. 6C
T1 construct: expressed in transfected cells; host or cells: human HeLa cells, transient co-transfection
T1 sequence (P06401 679-913 limits assumed): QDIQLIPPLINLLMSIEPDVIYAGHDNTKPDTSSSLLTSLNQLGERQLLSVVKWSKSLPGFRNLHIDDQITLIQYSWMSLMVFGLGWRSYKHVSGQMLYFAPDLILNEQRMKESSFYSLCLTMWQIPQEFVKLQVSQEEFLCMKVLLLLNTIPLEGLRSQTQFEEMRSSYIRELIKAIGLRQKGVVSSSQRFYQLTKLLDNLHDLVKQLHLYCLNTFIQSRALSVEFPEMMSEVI
Procedure: (§1) To test the molecular circuits outlined in FIG. 6A, human HeLa cells were co-transfected with appropriate amounts of Hsp70/GAL4-GLP65 and GAL4-fLuc or GAL4-hGH using Lipofectamine™ reagent (Life Technologies). For correction of differences in transfection efficiency, a small amount of pRL-CMV expressing a Renilla luciferase was also included in transfection mixtures. One day after transfection, cultures were either left untreated, were administered 10 nM mifepristone, were heat-treated (43-44° C. for 30-60 min), or were administered mifepristone and subjected to heat treatment. Two or three days later, cells were harvested and assayed for firefly luciferase activity using the Dual Luciferase Reporter Assay System (Promega Corp.) or for hGH activity using an ELISA kit distributed by Roche, respectively.

[2] = target: T1, transcription factor GLP65; assay: Molecular circuit Hsp70/GAL4-GLP65 + GAL4-fLuc in co-transfected HeLa cells, firefly luciferase assay; details: 10 nM mifepristone with or without heat treatment 43-44° C. for 30-60 min, assayed two or three days later, FIG. 6B
Procedure: as §1

[3] = target: T2, transcription factor GLP65 (Homo sapiens, UniProt P06401+Q04206); assay: Stable HeLa-CAT line with genomic GAL4-fLuc and Hsp70/GAL4-GLP65-RKC transactivator, firefly luciferase assay; details: stable HeLa-CAT clonal line; mifepristone and/or heat treatment at 43° C.; assayed one day later; FIG. 7
T2 construct: expressed in transfected cells
T2 sequence (P06401+Q04206 fused): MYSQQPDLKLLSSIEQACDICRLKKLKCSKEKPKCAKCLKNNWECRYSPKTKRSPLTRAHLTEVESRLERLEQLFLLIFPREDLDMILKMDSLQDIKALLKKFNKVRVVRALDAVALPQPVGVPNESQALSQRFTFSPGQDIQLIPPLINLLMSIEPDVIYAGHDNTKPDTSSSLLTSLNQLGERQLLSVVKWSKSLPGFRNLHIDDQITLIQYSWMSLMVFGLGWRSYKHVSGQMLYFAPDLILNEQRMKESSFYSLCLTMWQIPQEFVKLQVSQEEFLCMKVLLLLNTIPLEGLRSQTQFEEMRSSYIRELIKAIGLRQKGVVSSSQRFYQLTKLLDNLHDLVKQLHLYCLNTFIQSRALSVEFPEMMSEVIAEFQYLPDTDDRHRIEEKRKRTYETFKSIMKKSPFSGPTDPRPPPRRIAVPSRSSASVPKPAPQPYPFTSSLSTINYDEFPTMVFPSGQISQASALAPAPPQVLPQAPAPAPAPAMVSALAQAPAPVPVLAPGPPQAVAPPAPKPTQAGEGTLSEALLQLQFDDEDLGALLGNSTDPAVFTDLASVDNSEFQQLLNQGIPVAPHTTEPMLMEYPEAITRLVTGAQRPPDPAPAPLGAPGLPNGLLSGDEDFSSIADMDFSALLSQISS
Procedure: HeLa-CAT cells were cotransfected with GAL4-fLuc and Hsp70/GAL4-GLP65-RKC-neo (4:1 molar ratio), and transformants were selected using 400 μg/ml G418. Clonal lines were isolated. […] In the experiment shown in the Figure, parallel cultures of the cell line were either left untreated, or were heat-treated at 43° C. for the times indicated, exposed to mifepristone at the concentrations indicated, or both heat-treated and provided mifepristone. One day later, cells were harvested and assayed for firefly luciferase activity. […] Note that relative firefly luciferase activities are presented as fractions of the highest activity in the experiment.

EcR/RXR = assay: Firefly luciferase reporter assay of the Hsp70/E/GRE combination promoter in transfected EcR-293 cells; details: EcR-293 cells transfected with Hsp70/E/GRE-fLuc; ponasterone A for 1-2 days
Procedure: To test the Hsp70/E/GRE combination promoter and compare it with the hsp70B and E/GRE promoters, EcR-293 cells were co-transfected using Lipofectamine™ reagent (Life Technologies) with Hsp70/E/GRE-fLuc, Hsp70-fLuc or E/GRE-fLuc and pRL-CMV containing a constitutively expressed Renilla luciferase gene. One day after transfection, parallel cultures were either left untreated or were subjected to a heat treatment at 43-44° C. for 30 min or to ponasterone A (Invitrogen Corp.) for 1-2 days. Cells were harvested (after ponasterone exposure or 6-7 h after heat treatment), and firefly luciferase activities were determined using the Dual Luciferase Reporter System (Promega Corp.). […] EcR-293 cells expressing activatable EcR/RXR were obtained from Invitrogen Corporation and were cultured according to the manufacturer's instructions.

Compound	expression of hGH gene (relative hGH activity) [1]	expression of fLuc gene (relative firefly luciferase activity) [2]	firefly luciferase activity of genomic luciferase gene [3]	firefly luciferase activity (induction of the Hsp70/E/GRE combination promoter) (EcR/RXR)
CC#C[C@]1(O)CC[C@H]2[C@@H]3CCC4=CC(=O)CCC4=C3[C@@H](c3ccc(N(C)C)cc3)C[C@@]21C [mifepristone]	essentially silent, except when the cells containing the respective gene switches were stressed (heat treatment) as well as were administered mifepristone	essentially silent, except when the cells containing the respective gene switches were stressed (heat treatment) as well as were administered mifepristone	Elevated levels of luciferase activity were only measured in cells that were both administered mifepristone and had been subjected to heat treatment	
CC(C)CC[C@@H](O)[C@](C)(O)[C@H]1CC[C@@]2(O)C3=CC(=O)[C@@H]4C[C@@H](O)[C@@H](O)C[C@]4(C)[C@H]3CC[C@]12C [ponasterone A]				strongly inducible by heat and ponasterone A
